From US4563527A, “Amidine compounds” (Torii & Co., Ltd., priority 1984, dated 1986) come the findings set out here.

In general, inhibition refers to the relative decrease from the control value, in per cent.

Structures are written as SMILES. Where two headings read alike, the source gives them in different places.

Test [1] addresses T1, Trypsin (Bos taurus, UniProt P00760).
T1 sequence (P00760 24-246): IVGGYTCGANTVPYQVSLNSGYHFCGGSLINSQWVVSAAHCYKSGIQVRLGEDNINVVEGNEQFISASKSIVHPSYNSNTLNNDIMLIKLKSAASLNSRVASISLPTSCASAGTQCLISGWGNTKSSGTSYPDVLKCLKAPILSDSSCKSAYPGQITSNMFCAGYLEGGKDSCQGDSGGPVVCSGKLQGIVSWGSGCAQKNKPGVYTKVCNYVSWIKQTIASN
The test can be described thus: Anti-trypsin activity (hydrolysis of TAME). The note with it: molar concentration inhibiting 50% of TAME hydrolysis; read-out: ID50 trypsin. Type of test: biochemical. On the procedure:
(§1) The anti-trypsin, anti-plasmin, anti-kallikrein and anti-thrombin activities were determined according to the method of Muramatsu et al. [M. Muramatus, T. Onishi, S. Makino, Y. Hayashi and S. Fujii, J. of Biochem., 58, 214 (1965)]. The data summarized in Table 1 are expressed in terms of molar concentration (ID50) of the test compound which inhibits 50% of the activity of each enzyme to hydrolyze TAME (tosylalginine methyl ester). The compound No. corresponds to the compound number shown in Examples.

For test [2], the target named is Plasmin (Homo sapiens, UniProt P00747). The test can be described thus: Anti-plasmin activity (hydrolysis of TAME). The format is biochemical. The note with it: for IC50: molar concentration inhibiting 50% of TAME hydrolysis, read-out: ID50 plasmin. As to the method:
The anti-trypsin, anti-plasmin, anti-kallikrein and anti-thrombin activities were determined according to the method of Muramatsu et al. [M. Muramatus, T. Onishi, S. Makino, Y. Hayashi and S. Fujii, J. of Biochem., 58, 214 (1965)]. […] The compound No. corresponds to the compound number shown in Examples.

Test [3] relates to Kallikrein. The test can be described thus: Anti-kallikrein activity (hydrolysis of TAME). The note with it: molar concentration inhibiting 50% of TAME hydrolysis; read-out: ID50 kallikrein. Type of test: biochemical. On the procedure:
as §1

Test [4] has as its target Thrombin (Homo sapiens, UniProt P00734). The test can be described thus: biochemical. The following applies: read-out: ID50 thrombin.
Test [5] addresses T2, C1r (Homo sapiens, UniProt P00736).
T2 sequence (P00736 464-705 limits assumed): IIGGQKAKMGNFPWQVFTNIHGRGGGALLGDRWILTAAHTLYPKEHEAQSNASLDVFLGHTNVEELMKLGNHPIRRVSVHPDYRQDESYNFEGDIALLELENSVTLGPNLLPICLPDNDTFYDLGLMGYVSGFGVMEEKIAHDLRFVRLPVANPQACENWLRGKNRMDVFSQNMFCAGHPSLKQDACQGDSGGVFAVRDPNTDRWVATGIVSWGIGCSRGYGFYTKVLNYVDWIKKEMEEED
T2 sequence (P00736 18-463 partner limits assumed): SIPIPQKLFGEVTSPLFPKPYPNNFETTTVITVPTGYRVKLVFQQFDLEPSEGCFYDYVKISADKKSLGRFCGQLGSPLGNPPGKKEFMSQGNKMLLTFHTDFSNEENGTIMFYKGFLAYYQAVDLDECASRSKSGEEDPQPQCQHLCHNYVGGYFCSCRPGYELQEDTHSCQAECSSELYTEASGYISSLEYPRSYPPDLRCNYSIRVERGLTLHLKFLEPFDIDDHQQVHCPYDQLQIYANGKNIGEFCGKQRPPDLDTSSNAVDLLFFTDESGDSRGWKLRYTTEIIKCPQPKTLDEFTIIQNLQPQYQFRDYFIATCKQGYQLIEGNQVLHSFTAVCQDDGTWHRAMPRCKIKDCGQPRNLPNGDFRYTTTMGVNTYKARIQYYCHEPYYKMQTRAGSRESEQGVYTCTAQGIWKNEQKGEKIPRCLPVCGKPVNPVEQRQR
As to the kind of experiment: biochemical. The following applies: molar concentration inhibiting 50% of AAME hydrolysis; read-out: ID50 C1r (Anti-C1 activity).

Test [6] deals with T3, C1s (Homo sapiens, UniProt P09871).
T3 sequence (P09871 438-688 limits assumed): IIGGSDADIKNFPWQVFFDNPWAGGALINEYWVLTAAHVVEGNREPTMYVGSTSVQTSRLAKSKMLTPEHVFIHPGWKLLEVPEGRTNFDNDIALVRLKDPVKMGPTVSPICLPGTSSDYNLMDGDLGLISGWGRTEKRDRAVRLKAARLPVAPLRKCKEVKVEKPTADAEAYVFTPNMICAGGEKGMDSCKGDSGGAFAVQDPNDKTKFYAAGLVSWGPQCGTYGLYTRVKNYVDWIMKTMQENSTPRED
T3 sequence (P09871 16-437 partner limits assumed): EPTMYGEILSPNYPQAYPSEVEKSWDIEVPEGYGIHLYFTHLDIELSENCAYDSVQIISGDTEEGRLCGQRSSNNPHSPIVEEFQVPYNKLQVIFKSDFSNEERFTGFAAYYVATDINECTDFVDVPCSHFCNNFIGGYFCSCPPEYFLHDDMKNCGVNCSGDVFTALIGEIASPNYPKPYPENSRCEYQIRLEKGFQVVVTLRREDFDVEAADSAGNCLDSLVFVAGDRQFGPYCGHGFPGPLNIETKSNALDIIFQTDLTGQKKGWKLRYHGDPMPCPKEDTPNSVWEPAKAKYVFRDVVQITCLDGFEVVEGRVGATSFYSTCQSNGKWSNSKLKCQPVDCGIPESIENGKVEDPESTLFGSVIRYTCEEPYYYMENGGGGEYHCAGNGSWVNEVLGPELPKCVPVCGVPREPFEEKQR
As to the kind of experiment: Anti-C1s activity (hydrolysis of ATEE). The format is biochemical. The following applies: molar concentration inhibiting 50% of ATEE hydrolysis; read-out: ID50 C1s (Anti-C1 activity). As to the method:
The anti-C1 esterase (C1r, C1s) activity was determined according to the method of Okamura et al. [K. Okamura, M. Muramatsu and B. Fujii, Biochem. Biophys. Acta, 295, 252-257 (1973)]. The inhibition of complement mediated hemolysis was determined according to the method of Baker et al. [B. R. Baker and E. H. Erickson, J. Med. Chem. 12, 408-414 (1969)]. The figures in Table 2 have the following meanings:
C1s: Molar concentration of the test compound which inhibits 50% of the ability of C1s to hydrolyse ATEE (acetyltyrosin ethyl ester) (ID50).

The subject of test [7] is complement. As to the kind of experiment: Inhibition of complement mediated hemolysis. The format is cell-based. On the procedure:
The complement mediated hemolysis is widely used as a means to determine the titration of complement. The principle of this method is based on the fact that hemolysis is caused by the activation of complement, when the latter is added to a complex (immune complex) of erythrocytes and the antibody thereof. The degree of hemolysis varies in proportion to the amount of complement added. Therefore, when a known amount of complement admixed with a C1 esterase inhibitor is used, the hemolysis must be suppressed in proportion to the inhibitory activity.
The anti-C1 esterase (C1r, C1s) activity was determined according to the method of Okamura et al. [K. Okamura, M. Muramatsu and B. Fujii, Biochem. Biophys. […] The figures in Table 2 have the following meanings: […]

The mark [8] stands for this setting: molar concentration inhibiting 50% of TAME hydrolysis.

Plasmin, sequence (P00747 581-810 limits assumed, species assumed): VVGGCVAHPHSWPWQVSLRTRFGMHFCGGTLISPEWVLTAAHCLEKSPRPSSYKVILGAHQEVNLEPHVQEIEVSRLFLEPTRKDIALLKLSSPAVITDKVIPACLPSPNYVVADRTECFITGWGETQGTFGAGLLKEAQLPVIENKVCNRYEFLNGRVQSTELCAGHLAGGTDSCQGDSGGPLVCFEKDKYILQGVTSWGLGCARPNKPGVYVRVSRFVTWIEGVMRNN
Plasmin, sequence (P00747 97-580 partner limits assumed, species assumed): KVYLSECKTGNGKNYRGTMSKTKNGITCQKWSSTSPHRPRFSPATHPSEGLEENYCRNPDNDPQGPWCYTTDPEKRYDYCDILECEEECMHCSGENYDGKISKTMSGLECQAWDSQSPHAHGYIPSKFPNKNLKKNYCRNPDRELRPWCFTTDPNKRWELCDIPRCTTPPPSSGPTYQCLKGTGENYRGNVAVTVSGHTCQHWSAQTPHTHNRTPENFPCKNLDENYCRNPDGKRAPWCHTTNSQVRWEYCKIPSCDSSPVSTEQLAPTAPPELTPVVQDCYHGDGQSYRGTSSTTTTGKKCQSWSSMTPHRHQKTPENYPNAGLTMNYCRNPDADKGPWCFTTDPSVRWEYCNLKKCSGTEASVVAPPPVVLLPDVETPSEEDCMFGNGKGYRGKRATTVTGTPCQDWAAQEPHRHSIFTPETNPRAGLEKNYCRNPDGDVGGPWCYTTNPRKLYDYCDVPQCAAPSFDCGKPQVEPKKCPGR

On to `N=C(N)c1ccc2cc(OC(=O)c3ccc(CNC(=O)C4CCC(CN)CC4)o3)ccc2c1` (stereo not shown) [compound 38], for which the IC50 was determined as 0.5 µM in test [1]; 0.4 µM in test [2]; 0.3 µM in test [3]; 0.08 µM in test [4] (setting [8]); 0.3 µM in test [5]; 3 µM in test [6]. The entries for the “Inhibition of complement mediated hemolysis (%)” value (shortened to “Inhibition … (%)”) in test [7] (1 × 10^-5), in test [7] (1 × 10^-6) and in test [7] (1 × 10^-7) were 100%, 100% and 98%, respectively.
In the case of `N=C(N)c1ccc2cc(OC(=O)c3ccc(CNC(=O)CCNC(=O)OCc4ccccc4)o3)ccc2c1` [compound 20], the results for the “Inhibition … (%)” value in test [7] (1 × 10^-5), in test [7] (1 × 10^-6) and in test [7] (1 × 10^-7) were 100%, 98% and 43%, respectively.
Turning to `CNC(=N)NCc1ccc(C(=O)Oc2ccc3cc(C(=N)N)ccc3c2)o1` [compound 6], the IC50 in test [1] worked out at 4 µM; in test [2], 3 µM; in test [3] it was 0.4 µM; in test [4] (setting [8]) it was 2 µM; in test [5], 0.5 µM; in test [6], 1 µM. The “Inhibition … (%)” value in test [7] (1 × 10^-5), in test [7] (1 × 10^-6) and in test [7] (1 × 10^-7) was 100% in each case.
Take `N=C(N)Nc1ccc(C(=O)Oc2ccc3cc(C(=N)N)ccc3c2)o1` [Compound No. 3]: the IC50 in test [1] came to 0.1 µM; in test [2], 0.5 µM; in test [3] it was 0.9 µM; in test [4] (setting [8]), 0.3 µM; in test [5], 0.7 µM; in test [6], 0.3 µM. Further, the “Inhibition … (%)” value in test [7] (1 × 10^-5) worked out at 100%; in test [7] (1 × 10^-6) it was 100%; in test [7] (1 × 10^-7), 99%.
Turning to `N=C(N)c1ccc2cc(OC(=O)c3ccc(CNC(=O)c4cccnc4)o3)ccc2c1` [compound 16], the IC50 in test [1] came to 1 µM; in test [2], 1 µM; in test [3], 0.4 µM; in test [4] (setting [8]), 0.4 µM; in test [5] it was 0.4 µM; in test [6] it was 0.3 µM. The entries for the “Inhibition … (%)” value in test [7] (1 × 10^-5), in test [7] (1 × 10^-6) and in test [7] (1 × 10^-7) were 100%, 100% and 97%, respectively.
As for `N=C(N)c1ccc2cc(OC(=O)c3ccc(CNC(=O)c4cnc5ccccc5c4)o3)ccc2c1` [compound 17], the IC50 came to 0.8 µM in test [1]; 2 µM in test [2]; 1 µM in test [3]; 0.7 µM in test [4] (setting [8]); 0.5 µM in test [5]; 2 µM in test [6]. Moreover, the “Inhibition … (%)” value was 100% in test [7] (1 × 10^-5), 100% in test [7] (1 × 10^-6) and 93% in test [7] (1 × 10^-7).
As for `CN=C(NC)NCc1ccc(C(=O)Oc2ccc3cc(C(=N)N)ccc3c2)o1` [Compound No. 2, 6-amidino-2-naphthyl 5-(2,3-dimethyl)guanidinomethyl-furan-2-carboxylate], the IC50 in test [1] came to 2 µM; in test [2], 0.8 µM; in test [4] (setting [8]), 0.9 µM; in test [5] it was 1 µM; in test [6], 1 µM. Further, the figures for the “Inhibition … (%)” value in test [7] (1 × 10^-5), in test [7] (1 × 10^-6) and in test [7] (1 × 10^-7) were 100%, 100% and 91%, respectively.
Turning to `CN(C(=N)N)c1ccc(C(=O)Oc2ccc3cc(C(=N)N)ccc3c2)o1` [compound 4], the IC50 in test [1] was determined as 4 µM; in test [3] it was 6 µM; in test [4] (setting [8]) it was 8 µM; in test [5], 2 µM; in test [6] it was 0.3 µM. For the same compound, in test [2] (figure in parentheses, at 1×10^-5 M, TAME, read-out: percentage inhibition of plasmin), the inhibition at 10 µM was 42%. Moreover, the “Inhibition … (%)” value in test [7] (1 × 10^-5) is given as 100%; in test [7] (1 × 10^-6), 100%; in test [7] (1 × 10^-7), 59%.
Regarding `N=C(N)c1ccc2cc(OC(=O)c3ccc(CN)o3)ccc2c1` [compound 33], the IC50 came to 0.5 µM in test [1]; 0.4 µM in test [2]; 4 µM in test [3]; 3 µM in test [4]; 0.7 µM in test [5]; 2 µM in test [6]. Besides, the “Inhibition … (%)” value in test [7] (1 × 10^-5) came out at 97%; in test [7] (1 × 10^-6) it was 97%; in test [7] (1 × 10^-7) it was 81%.
As to `N=C(N)c1ccc2cc(OC(=O)c3ccc(CNC(=O)OCc4ccccc4)o3)ccc2c1` [compound 19], the IC50 in test [1] was 0.2 µM; in test [2], 0.3 µM; in test [3], 0.7 µM; in test [4] (setting [8]), 0.2 µM; in test [5], 0.2 µM; in test [6] it was 0.3 µM. Besides, the “Inhibition … (%)” value in test [7] (1 × 10^-5) is listed as 97%; in test [7] (1 × 10^-6), 97%; in test [7] (1 × 10^-7), 93%.
Turning to `N=C(N)c1ccc2cc(OC(=O)c3ccc(CNC(=O)CCN)o3)ccc2c1` [compound 34], the IC50 in test [2] turned out to be 2 µM; in test [3], 0.3 µM; in test [4] (setting [8]), 0.5 µM; in test [5], 0.5 µM; in test [6] it was 0.5 µM. Besides, the results for the “Inhibition … (%)” value in test [7] (1 × 10^-5), in test [7] (1 × 10^-6) and in test [7] (1 × 10^-7) were 100%, 100% and 58%, respectively.
